In patent publication US10723998B2, “Application of ethyl p-methoxycinnamate and derivatives thereof in maintaining self-renewal and pluripotency of stem cells” (NORTHEAST NORMAL UNIVERSITY, priority 2015, dated 2020):

Test system: Oct4 promoter
Test: Luciferase reporter gene assay of derivatives on Oct4 expression (co-transfection with pCMV-β-gal) in P19 cells
Format: cell-based, mouse
Conditions: 5 μg/mL, 12-24 h, DMSO control, FIG. 6
Protocol: The effect of derivatives of ethyl p-methoxycinnamate on Oct4 expression was assayed by a luciferase reporter gene method, the derivatives including diethyl 4-methoxybenzalmalonate, ethyl 3-(3-methoxy-4-methoxycarbonylmethoxyphenyl)acrylate, diethyl 4-acetoxybenzylidenemalonate, chlorogenic acid, ethyl cinnamate, 3-cinnamoyloxypropyl 3-propylacrylate, ethyl 2-cyano-3,3-diphenylacrylate, ethyl 2,6-dichlorocinnamate, diethyl 4-chlorobenzylidenemalonate, ethyl 4-aminocinnate, ethyl 3-cyanocinnamate, ethyl 4-nitrocinnamate, 3-[3-(4-methoxyphenyl)acryloyloxymethyl]benzyl 3-(4-methoxyphenyl)acrylate, 4-[3-(4-methoxyphenyl)acryloyloxy]butyl-2-ynyl 3-(4-methoxyphenyl)acrylate, ethyl indole-2-carboxylate, and ethyl 6-methoxy-1-benzofuran-2-carboxylate.
One day before transfection, mouse teratoma cells P19 were inoculated into a 24-well cell culture plate at a density of 1×10^5 cells/well, to make the cells grown to about 80% before transfection. A liposomal transfection reagent Entranster™-D from Engreen company was used to perform the transfection according to the instructions, to co-transfect the P19 cells with target plasmid (PGL3-Oct4P-Basic or pGL3-Basic) and reference plasmid (pCMV-β-gal). The total amount of the plasmid used for transfection was 1 μg/well (the target plasmid:the reference plasmid=2:1). The plasmid was added to 25 μL of serum-free DMEM culture medium, and fully mixed. 3 μL of the transfection reagent was then added to another 25 μL of serum-free DMEM culture medium, mixed well, and allowed to stand for 5 min. The DMEM culture medium containing the transfection reagent was then added to the DMEM culture medium containing the plasmid, and the mixture was immediately pipetted more than 10 times, and allowed to stand at room temperature for 30 min. 250 μL of DMEM culture medium containing 10% fetal calf serum was added to the mixed solution, and gently mixed well. The original cell culture medium in the 24-well plate was discarded, and replaced with the above mixed solution. After being cultured for 4-6 h in a 5% CO2 cell incubator at 37° C., the original culture medium was absorbed and removed, and replaced with 500 μL of DMEM culture medium containing 10% fetal calf serum. […] After subsequent continuous culture for 12-24 h, the cells were lysed, and the luciferase activity was assayed.
Luciferase Reporter Assay System and FluoStar Optima were used to assay the luciferase activity of the transfected cell lysis solution. To 45 μL of the cell lysis solution was added 5 μL of Assay Cocktail reagent, after they were mixed well, 100 μL of Luciferin reaction solution was added, and fluorescence counting in 2 s was measured using FluoStar Optima instrument, which reflected the activity level of the studied plasmid reporter genes expressing firefly luciferase. To another 20 μL of the cell lysis solution was added 37.5 μL of β-gal Buffer followed by 12.5 μL of ONPG (6 mg/mL), and after they were mixed well, they were allowed to stand at 37° C. for 30 min. An absorption value at 450 nm was assayed using a microplate reader, which reflected the activity level of internal reference plasmid pCMV-β-gal expressing β-galactosidase. The ratio between the activity of the firefly luciferase and the activity of the β-galactosidase (β-gal) excluded the difference of the sample transfection efficiency, and could relatively objectively reflect the difference of promoter activity between samples. The relative luciferase activity of different samples was calculated through the following equation: […]

Row | Structure (SMILES) | effect of derivatives on the activity of the Oct4 promoter (relative luciferase activity)
1 | CCOC(=O)C(C#N)=C(c1ccccc1)c1ccccc1 [ethyl 2-cyano-3,3-diphenylacrylate] | have the effect of enhancing the activity of the Oct4 promoter
2 | CCOC(=O)C(=Cc1ccc(OC(C)=O)cc1)C(=O)OCC [diethyl 4-acetoxybenzylidenemalonate] | have the effect of enhancing the activity of the Oct4 promoter
3 | CCCC=CC(=O)OCCCOC(=O)C=Cc1ccccc1 [3-cinnamoyloxypropyl 3-propylacrylate] | have the effect of enhancing the activity of the Oct4 promoter
4 | COc1ccc(C=CC(=O)OCc2cccc(COC(=O)C=Cc3ccc(OC)cc3)c2)cc1 [3-[3-(4-methoxyphenyl)acryloyloxymethyl]benzyl 3-(4-methoxyphenyl)acrylate] | have the effect of enhancing the activity of the Oct4 promoter
5 | CCOC(=O)c1cc2ccccc2[nH]1 [ethyl indole-2-carboxylate] | have the effect of enhancing the activity of the Oct4 promoter
6 | COc1ccc(C=CC(=O)OCC#CCOC(=O)C=Cc2ccc(OC)cc2)cc1 [4-[3-(4-methoxyphenyl)acryloyloxy]butyl-2-ynyl 3-(4-methoxyphenyl)acrylate] | have the effect of enhancing the activity of the Oct4 promoter
7 | CCOC(=O)C=Cc1ccccc1 [ethyl cinnamate] | have the effect of enhancing the activity of the Oct4 promoter
8 | O=C(/C=C/c1ccc(O)c(O)c1)O[C@@H]1C[C@](O)(C(=O)O)C[C@@H](O)[C@H]1O [chlorogenic acid] | have the effect of enhancing the activity of the Oct4 promoter
